Data published in patent US7632830B2, “Lactam compounds and pharmaceutical use thereof” (Ajinomoto Co., Inc., priority 2000, dated 2009).

Test system: adipose cells of rats
Assay: Evaluation of the sugar-transporting activity (2-[14C(U)]-deoxy-D-glucose incorporation)
Assay type: cell-based
Conditions: concentration having a reinforcing effect corresponding to 50% of the reinforcing effect of insulin (100%); rat adipose cells
Protocol: After the decapitation and venesection of 6 male Wistar rats (body weight: 150 to 200 g), an incision was made in the abdomen of each rat to extract 6 g in total of epididymal adipose tissues. The tissues were finely cut into 2 mm×2 mm pieces in 6 ml of KRH (Krebs-Ringer Hepes, composition: 130 mM of sodium chloride, 4.7 mM of potassium chloride, 1.2 mM of potassium dihydrogenphosphate, 1.2 mM of magnesium sulfate, 1 mM of calcium chloride and 25 mM of Hepes, pH=7.6) containing 5% of BSA (bovine serum albumin). 24 mg of collagenase (type I) was added thereto and the digestion treatment was conducted for about 40 minutes to obtain about 6 ml of isolated adipose cells. The collagenase was removed by the buffer exchange. 2% BSA/KRH solution was added to the residue for the re-suspension to obtain 45 ml of an adipose cell suspension.
The sugar-transporting activity of the compounds of the present invention was evaluated with reference to a method described in a literature [Annual Review of Biochemistry, Vol. 55, p. 1059 (1986)]. In the test, 200 μl of the adipose cell suspension was poured in each polystyrene test tube, 100 μl of the solution of the test substance (by dilution of 10 mg/ml substance dimethyl sulfoxide solution with KRH) was added thereto, and the obtained mixture was shaken and then cultured at 37° C. for 30 minutes.
The sugar-transporting activity was evaluated by measuring the quantity of 2-[^14C(U)]-deoxy-D-glucose incorporated per a unit time. Namely, 2-[^14C(U)]-deoxy-D-glucose was added to the adipose cell suspension after the pre-culture (the final concentration: 0.5 μCi/sample). 5 minutes after, cytochalasin B (final concentration: 10 μM) was added to the mixture to terminate the sugar transportation. After forming a dinonyl phthalate layer, the obtained mixture was centrifuged to separate the adipose cells from the buffer. The quantity of 2-[^14C(U)]-deoxy-D-glucose contained in the adipose cell layer was determined with a liquid scintillation counter to determine the quantity of the incorporated sugar. In this evaluation system, when insulin (100 nM) having the effect of increasing the sugar transportation was used, the effect was about 7 times as high as that obtained in the insulin-free control group.
The results of the evaluation of the sugar-transporting activity obtained by using 100 μg/ml of each compound of the present invention are shown in Table 6. The sugar transporting activity in Table 6 was evaluated on the basis of the reinforcing effect of insulin (100 nM). […] The symbols in Table 6 are as follows: • No: Example No., and • A: sugar transporting activity.
The results of the evaluation of the sugar-transporting activity obtained by using each compound of the present invention are shown in Table 7. The sugar transporting activity in Table 7 was determined in terms of the concentration (EC50: μg/ml) of a test compound, having a reinforcing effect corresponding to 50% on the basis of the reinforcing effect of insulin having a reinforcing effect of 100%.

Row | A: sugar transporting activity (EC50) [µg/mL] | SMILES
1 | 2.6 | COc1ccccc1[C@@H]1C2=C(CNC2=O)N[C@@H]2CCCC[C@H]2N1C(=O)CCSC [Example 71]
2 | 5.5 | COc1ccccc1[C@@H]1C2=C(CNC2=O)N[C@@H]2CCCC[C@H]2N1C(=O)CC(C)=O [Example 72]
3 | 6 | COC(=O)N1[C@@H]2CCCC[C@H]2NC2=C(C(=O)NC2)[C@H]1c1ccccc1OC [Example 80]
4 | 4.2 | CCOC(=O)N1[C@@H]2CCCC[C@H]2NC2=C(C(=O)NC2)[C@H]1c1ccccc1OC [Example 81]
5 | 3.6 | CCNC(=O)N1[C@@H]2CCCC[C@H]2NC2=C(C(=O)NC2)[C@H]1c1ccccc1OC [Example 84]
6 | 7 | CCCNC(=O)N1[C@@H]2CCCC[C@H]2NC2=C(C(=O)NC2)[C@H]1c1ccccc1OC [Example 85]
7 | 15 | CCOc1ccccc1[C@@H]1C2=C(CNC2=O)N[C@@H]2CCCC[C@H]2N1C(C)=O [Example 87]
8 | 1.5 | CCOc1ccccc1[C@@H]1C2=C(CNC2=O)N[C@@H]2CCCC[C@H]2N1C(=O)OC [Example 95]
9 | 4.8 | COC(=O)N1[C@@H]2CCCC[C@H]2NC2=C(C(=O)NC2)[C@H]1c1ccccc1OC(C)C [Example 101]
10 | 3.7 | CC(=O)N1[C@@H]2CCCC[C@H]2NC2=C(C(=O)NC2)[C@H]1c1ccccc1O [Example 105]
11 | 0.82 | CCC(=O)N1[C@@H]2CCCC[C@H]2NC2=C(C(=O)NC2)[C@H]1c1ccc(F)cc1OC [Example 107]
12 | 7.8 | CCOCC(=O)N1[C@@H]2CCCC[C@H]2NC2=C(C(=O)NC2)[C@H]1c1ccc(F)cc1OC [Example 108]
13 | 8 | COc1cc(F)ccc1[C@@H]1C2=C(CNC2=O)N[C@@H]2CCCC[C@H]2N1C(C)=O [Example 109]
14 | 6 | COc1cc(Cl)ccc1[C@@H]1C2=C(CNC2=O)N[C@@H]2CCCC[C@H]2N1C(C)=O [Example 110]
15 | 10 | COc1ccc(F)cc1[C@@H]1C2=C(CNC2=O)N[C@@H]2CCCC[C@H]2N1C(C)=O [Example 113]
16 | 12 | COc1cccc([C@@H]2C3=C(CNC3=O)N[C@@H]3CCCC[C@H]3N2C(C)=O)c1OC [Example 114]
17 | 10 | COc1ccc([C@@H]2C3=C(CNC3=O)N[C@@H]3CCCC[C@H]3N2C(C)=O)c(OC)c1 [Example 115]

The next lines start with the compound.

Row | SMILES | A: sugar transporting activity (EC50) [µg/mL]
18 | COc1ccccc1CCC(=O)N1[C@@H]2CCCC[C@H]2NC2=C(C(=O)NC2)[C@H]1c1ccccc1OC [Example 69] | 4
19 | COc1ccccc1[C@@H]1C2=C(CNC2=O)N[C@@H]2CCCC[C@H]2N1C(=O)CCc1ccc(F)c(F)c1 [Example 70] | 4.2
20 | COc1ccccc1[C@@H]1C2=C(CNC2=O)N[C@@H]2CCCC[C@H]2N1C(=O)c1ccccn1 [Example 76] | 10
21 | COc1ccccc1[C@@H]1C2=C(CNC2=O)N[C@@H]2CCCC[C@H]2N1C(=O)c1ccncc1 [Example 78] | 18
22 | COc1ccccc1[C@@H]1C2=C(CNC2=O)N[C@@H]2CCCC[C@H]2N1C(=O)c1cnccn1 [Example 79] | 8.6
23 | COc1ccccc1[C@@H]1C2=C(CNC2=O)N[C@@H]2CCCC[C@H]2N1C(=O)OCc1ccccc1 [Example 82] | 6
24 | COc1ccccc1[C@@H]1C2=C(CNC2=O)N[C@@H]2CCCC[C@H]2N1C(=O)Oc1ccccc1 [Example 83] | 11
25 | CCOc1ccccc1[C@@H]1C2=C(CNC2=O)N[C@@H]2CCCC[C@H]2N1C(=O)CC [Example 88] | 1.9
26 | CCCC(=O)N1[C@@H]2CCCC[C@H]2NC2=C(C(=O)NC2)[C@H]1c1ccccc1OCC [Example 89] | 1.3
27 | CCOc1ccccc1[C@@H]1C2=C(CNC2=O)N[C@@H]2CCCC[C@H]2N1C(=O)C(F)(F)F [Example 90] | 5
28 | CCOc1ccccc1[C@@H]1C2=C(CNC2=O)N[C@@H]2CCCC[C@H]2N1C(=O)COC(C)=O [Example 91] | 13
29 | CCOc1ccccc1[C@@H]1C2=C(CNC2=O)N[C@@H]2CCCC[C@H]2N1C(=O)CO [Example 92] | 3.8
30 | CCOc1ccccc1[C@@H]1C2=C(CNC2=O)N[C@@H]2CCCC[C@H]2N1C(=O)COC [Example 93] | 3.6
31 | CCOCC(=O)N1[C@@H]2CCCC[C@H]2NC2=C(C(=O)NC2)[C@H]1c1ccccc1OCC [Example 94] | 4
32 | CCOC(=O)N1[C@@H]2CCCC[C@H]2NC2=C(C(=O)NC2)[C@H]1c1ccccc1OCC [Example 96] | 7
33 | CCNC(=O)N1[C@@H]2CCCC[C@H]2NC2=C(C(=O)NC2)[C@H]1c1ccccc1OCC [Example 97] | 12
34 | CC(=O)N1[C@@H]2CCCC[C@H]2NC2=C(C(=O)NC2)[C@H]1c1ccccc1OC(C)C [Example 98] | 14
35 | CCC(=O)N1[C@@H]2CCCC[C@H]2NC2=C(C(=O)NC2)[C@H]1c1ccccc1OC(C)C [Example 99] | 2
36 | CCOCC(=O)N1[C@@H]2CCCC[C@H]2NC2=C(C(=O)NC2)[C@H]1c1ccccc1OC(C)C [Example 100] | 2
37 | CCOCC(=O)N1[C@@H]2CCCC[C@H]2NC2=C(C(=O)NC2)[C@H]1c1ccccc1OCc1ccccc1 [Example 102] | 4
38 | CC(=O)N1[C@@H]2CCCC[C@H]2NC2=C(C(=O)NC2)[C@H]1c1ccccc1OCc1ccccc1 [Example 103] | 3.6
39 | CCOCC(=O)N1[C@@H]2CCCC[C@H]2NC2=C(C(=O)NC2)[C@H]1c1ccccc1O [Example 104] | 1
40 | Cc1ccccc1[C@@H]1C2=C(CNC2=O)N[C@@H]2CCCC[C@H]2N1C(=O)C(F)(F)F [Example 117] | 6
41 | CCC(=O)N1[C@@H]2CCCC[C@H]2NC2=C(C(=O)NC2)[C@H]1c1ccccc1C [Example 118] | 2
42 | CCOCC(=O)N1[C@@H]2CCCC[C@H]2NC2=C(C(=O)NC2)[C@H]1c1ccccc1C [Example 119] | 4
43 | CC(=O)OCC(=O)N1[C@@H]2CCCC[C@H]2NC2=C(C(=O)NC2)[C@H]1c1ccccc1C [Example 120] | 8
44 | Cc1ccccc1[C@@H]1C2=C(CNC2=O)N[C@@H]2CCCC[C@H]2N1C(=O)CO [Example 121] | 2.5
